Reference: US4761398A, “Method of inducing birds to molt” (Embrex, Inc., priority 1986, dated 1988)

Assay: Body weight of hens through the molt and production period
Format: in vivo, single combed White Leghorn hens
Procedure: During the experiment, two birds were assigned to each cage (12"×18"). The hens were maintained in their cages for two weeks prior to the molt. They received a 17 hour light: 7 hour dark photoperiod throughout this phase of the experiment. During this time, the following parameters were measured:(a) body weight (weekly); (b) feed consumption (all hens received a common layer ration, and the feed consumed during this two week period was measured); (C) production records (daily); and (d), total egg weight, egg shell weight, and egg specific gravity (measured on three consecutive days each week). Serum samples were taken once, from 10 randomly selected hens from each treatment group, and saved for future study. After the two week pre-molt adjustment period, the hens were randomly assigned to each of eight different groups. These treatment groups were as follows: (1) control, (2) forced molt, (3) chemical molt-injected, (4) vehicle control-injected, (5) chemical molt-microcapsules A, (6) vehicle control-microcapsules A, (7) chemical molt-microcapsules B, and (8) vehicle control-microcapsules B. The hens then received a seven day pre-molt treatment of a 24 hour light, zero hour dark photoperiod. On day 14 of the experiment the photoperiod was then reduced to natural day length for all treatments. Feed was made available ad libitum for all groups except the forced molt group. The forced molt group was deprived of food, but not of water, until a 30% body weight loss occurred (10 days of fasting). [D-[…] ]LHRH was used as the LHRH receptor ligand for the chemical molt groups. The "chemical molt-injected" group received intramuscular (breast) injections of 25 micrograms/day of [D-[…] ]LHRH for 10 consecutive days beginning on day 14. Alternate pectoral (breast) areas were injected each day. The "chemical molt-microcapsule" groups received a single intramuscular (breast) injection of microencapsulated [D-[…] ]LHRH on day zero. This preparation of microcapsules provided a controlled release of 25 micrograms [D-[…] ]LHRH per day for 15 consecutive days. For all treatments, body weights were measured at day zero and every three days thereafter, until the forced molt group achieved a 30% weight loss. Serum samples were periodically collected from 10 hens randomly selected from each group, and saved for future analysis. The same 10 hens from each group were bled at each collection. On day 14, the microcapsule injected groups received intramuscular injections of lactide/glycolide copolymer microcapsules which had [D-[…] ]LHRH incorporated therein. The ligand-containing microcapsules administered the "Microcapsules A" group were prepared and supplied by Debiopharm (Lausanne, Switzerland). These microcapsules were prepared by a phase-separation process to produce a free-flowing powder of spherical particles consisting of [D-[…] ]LHRH (2% wt/wt) distributed within a polymeric matrix of 53:47(mol %) poly(DL-lactide-co-glycolide) (98% wt/wt) with an inherent viscosity of 0.7 dl/g. The microcapsules were 50 micrometers or less in diameter. […] Photomicrographs of similar microcapsules are presented in T. W. Redding, et al., Proc. Natl. Acad. Sci. […]. 1984). Microcapsules were suspended in disposable syringes in vehicle containing 2% carboxymethyl cellulose and 1% "TWEEN 20" in water. After thoroughly mixing the suspension, aliquots calculated to have released a dose of 25 micrograms/day for 15 consecutive days were injected into the breast muscle of the hens. We weighed the microcapsules directly into disposable 3 ml syringes. The plunger of a plugged syringe containing microcapsules (without vehicle) was pulled back to the 1.5-2 cc mark. The hub of the syringe was then placed against a vortex mixer and the syringe vortexed rapidly for about 20 seconds, or until most of the clumps of microbeads were broken and distributed along the barrel of the syringe. […]

Q: With [D-Trp^6 ]LHRH [D-Trp^6 --LHRH] as the substance, how does the “MEAN BODY WEIGHT” value (Day 5, before treatment) read?
A: 1.669 kg

Q: What about the “MEAN BODY WEIGHT” value (Day 12, before treatment (treatment started day 13/14)) of the same substance?
A: 1.722 kg

Q: And the “MEAN BODY WEIGHT” value (Day 17, 25 micrograms/day i.m.)?
A: 1.765 kg

Q: What about the “MEAN BODY WEIGHT” value (Day 22, 25 micrograms/day i.m.) of the same substance?
A: 1.704 kg

Q: And the “MEAN BODY WEIGHT” value (Day 27)?
A: 1.637 kg

Q: And the “MEAN BODY WEIGHT” value (Day 33)?
A: 1.654 kg

Q: What about the “MEAN BODY WEIGHT” value (Day 40) of the same substance?
A: 1.747 kg

Q: What about the “MEAN BODY WEIGHT” value (Day 47) of the same substance?
A: 1.760 kg

Q: And the “MEAN BODY WEIGHT” value (Day 54)?
A: 1.761 kg

Q: And the “MEAN BODY WEIGHT” value (Day 61)?
A: 1.802 kg

Q: What about the “MEAN BODY WEIGHT” value (Day 75) of the same substance?
A: 1.838 kg

Q: What about the “MEAN BODY WEIGHT” value (Day Zero, before treatment) of the same substance?
A: 1.720 kg
